Results on 19 compounds are retold here after ChEMBL document CHEMBL1135600, “Novel tricyclic-alpha-alkyloxyphenylpropionic acids: dual PPARalpha/gamma agonists with hypolipidemic and antidiabetic activity” (J Med Chem, 2002).

For series [1], the target named is T1, Peroxisome proliferator-activated receptor gamma (Homo sapiens, UniProt P37231).
T1 sequence (P37231 whole entry): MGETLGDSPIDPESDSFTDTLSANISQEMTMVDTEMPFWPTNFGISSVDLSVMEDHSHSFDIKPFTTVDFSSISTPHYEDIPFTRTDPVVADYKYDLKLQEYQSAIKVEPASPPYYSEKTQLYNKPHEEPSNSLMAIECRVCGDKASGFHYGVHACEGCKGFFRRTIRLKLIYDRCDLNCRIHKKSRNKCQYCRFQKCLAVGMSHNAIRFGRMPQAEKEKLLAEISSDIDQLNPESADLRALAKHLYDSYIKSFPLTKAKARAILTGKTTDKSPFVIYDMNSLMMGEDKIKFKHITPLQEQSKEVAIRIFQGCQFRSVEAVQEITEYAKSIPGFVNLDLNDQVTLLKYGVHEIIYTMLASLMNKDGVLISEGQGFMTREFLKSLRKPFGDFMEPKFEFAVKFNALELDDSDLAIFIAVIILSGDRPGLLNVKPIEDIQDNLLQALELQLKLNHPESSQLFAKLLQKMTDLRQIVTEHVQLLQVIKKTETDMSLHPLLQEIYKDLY
Description: In vitro transactivation using receptor transactivation assay against hPPAR gamma

Series [2] has as its target T2, Peroxisome proliferator-activated receptor alpha (Homo sapiens, UniProt Q07869).
T2 sequence (Q07869 whole entry): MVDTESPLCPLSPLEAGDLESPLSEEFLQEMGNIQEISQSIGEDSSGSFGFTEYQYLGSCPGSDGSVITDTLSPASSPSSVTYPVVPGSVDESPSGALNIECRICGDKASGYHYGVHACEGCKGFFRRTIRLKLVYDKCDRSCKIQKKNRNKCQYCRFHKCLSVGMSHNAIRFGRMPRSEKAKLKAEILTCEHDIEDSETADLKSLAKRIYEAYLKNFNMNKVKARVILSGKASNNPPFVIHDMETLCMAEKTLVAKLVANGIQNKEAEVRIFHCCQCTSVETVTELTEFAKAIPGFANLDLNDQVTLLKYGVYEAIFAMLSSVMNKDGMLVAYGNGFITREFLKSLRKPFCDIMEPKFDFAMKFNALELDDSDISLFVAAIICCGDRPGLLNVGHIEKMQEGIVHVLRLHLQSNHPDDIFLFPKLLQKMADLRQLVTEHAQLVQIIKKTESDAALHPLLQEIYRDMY
Description: In vitro transactivation using receptor transactivation assay against hPPAR alpha. The format is functional.

The species entered for series [3] is Rattus norvegicus. Description: Maximum achieved Total cholesterol reduction relative to vehicle treated control group. Format: functional.
The species named for series [4] is Rattus norvegicus. Briefly: Effective dose which produces the desired nonfasting triglyceride levels in high cholesterol fed male Sprgue-Dawley rats. Format: functional.
For series [5], the species on record is Rattus norvegicus. Briefly: Maximum achieved Nonfasted triglycerides reduction relative to vehicle treated control group. The format is functional.
The species entered for series [6] is Rattus norvegicus. Briefly: Effective dose which produces the desired total cholesterol levels imale Sprgue-Dawley rats. The format is functional.
Series [7] is filed under the species Mus musculus. Briefly: Effective dose which produces the desired nonfasting triglyceride levels after 7 days in 50% of the treated male db/db mice. The format is functional. The note with it: 168 h.
The nature of series [8]: Oral half life was reported. Format: ADME, organism-based. To be noted: in vivo.
The species named for series [9] is Mus musculus. Briefly: Maximum achieved blood glucose reduction relative to vehicle treated control group. Format: functional.
A short description of series [10]: Clearance after oral administration. To be noted: in vivo. The format is ADME, organism-based.
A short description of series [11]: Area under plasma concentration time curve after oral administration at a dose 2.2 mg/kg. The format is ADME, organism-based. More on the design: dose 2.2 mg/kg, route oral. The note with it: plasma, read-out: AUC (converted).
The species entered for series [12] is Mus musculus. Briefly: Effective dose which produces the desired nonfasting insuline levels after 7 days in 50% of the treated male db/db mice. Format: functional. The note with it: 168 h.
Series [13] is filed under the species Mus musculus. Briefly: Maximum achieved triglycerides reduction relative to vehicle treated control group. Format: functional.
Series [14] in a line: Area under blood glucose time curve after OGTT on the 9th day of treatment. The format is ADME, tissue-based.
The species named for series [15] is Mus musculus. Description: Effective dose which produces the desired nonfasting blood glucose levels after 7 days in 50% of the treated mice. The format is functional. The note with it: 168 h.
The species named for series [16] is Mus musculus. Description: Maximum achieved insulin reduction relative to vehicle treated control group. The format is functional.
Series [17] in a line: Oral bioavailability. Format: ADME, organism-based. The note with it: eutheria, in vivo.
Series [18] in a line: Maximum plasma concentration after oral administration at a dose 2.2 mg/kg. The format is ADME, organism-based. Also on record: dose 2.2 mg/kg, route oral.

Molecules are shown by their SMILES. “And” between values parts separate entries of the source, which are not always exact repeats. Equal entries are not always repeated.

Description for in vivo: Volume of distribution during steady state

One may read the EC50 as the concentration needed to bring the measured effect to its halfway point. A higher EC50 goes with lower potency in that assay. Consider `CCOC(Cc1ccc(OCCn2c3ccccc3c3ccncc32)cc1)C(=O)O` (configuration not stated), for which the 50% effective concentration (EC50) in [1] came to 91 nM; in series [2], 0.67 µM.

On to `CCO[C@@H](Cc1ccc(OCCN2c3ccccc3Oc3ccccc32)cc1)C(=O)O` [RAGAGLITAZAR], for which the EC50 in [1] stood at 570 nM; in series [2], 3.21 µM.

As to `CCOC(Cc1ccc(OCCC2c3ccccc3Oc3ccccc32)cc1)C(=O)O` (configuration not stated), the EC50 in [1] turned out to be 460 nM; in series [2], 9.6 µM.

Usually ED50 stands for the dose at which the effect has come halfway, by size or by number of responders. Lower therefore signals greater potency. In the case of `CC(C)(Oc1ccc(CCNC(=O)c2ccc(Cl)cc2)cc1)C(=O)O` [BEZAFIBRATE], the results for the Reduction in the series filed under Rattus norvegicus [3] and in the series listed under Rattus norvegicus [5] were 74% and 63%, respectively. Moreover, the 50% effective dose (ED50) in the series filed under Rattus norvegicus [4] amounted to 16.5 mg/kg; in the series filed under Rattus norvegicus [6], 16.7 mg/kg. The concentration for a half-maximal effect (EC50) in series [1] is 73500 nM.

Consider `CCOC(Cc1ccc(OCC=C2c3ccccc3OCOc3ccccc32)cc1)C(=O)O` (configuration not stated), for which, in series [1], the EC50 is 3400 nM.

For `CCOC(Cc1ccc(OCCN2c3ccccc3CCc3ccccc32)cc1)C(=O)O` (configuration not stated), in series [1], it took 750 nM to reach a half-maximal effect (EC50).

In the case of `CCOC(Cc1ccc(OCC=C2c3ccccc3CCc3ccccc32)cc1)C(=O)O` (configuration not stated), the EC50 in series [1] was 12600 nM.

For the compound `CCOC(Cc1ccc(OCCNC2=Nc3ccccc3Sc3ccccc32)cc1)C(=O)O` (configuration not stated), the results for the 50% effective concentration (EC50) in series [1] and in [2] were 9800 nM and 7.5 µM, respectively.

Take `CCOC(Cc1ccc(OCCC2Sc3ccccc3Oc3ccccc32)cc1)C(=O)O` (configuration not stated): the EC50 came to 3700 nM in series [1] and 9 µM in series [2].

Compound `CCOC(Cc1ccc(OCCC=C2c3ccccc3CCc3ccccc32)cc1)C(=O)O` (configuration not stated) came in with an EC50 in series [1] of 16700 nM.

As to `CCOC(Cc1ccc(OCC=C2c3ccccc3-c3ccccc32)cc1)C(=O)O` (configuration not stated), the concentration giving a half-maximal response (EC50) in [1] turned out to be 12100 nM; in series [2], 12.5 µM.

`CCO[C@@H](Cc1ccc(OCCn2c3ccc(Br)cc3c3cc(Br)ccc32)cc1)C(=O)O`: the EC50 in series [1] was found to be 44 nM; in series [2] it was 0.22 µM.

`CCOC(Cc1ccc(OCCN(C)C2c3ccccc3CCc3ccccc32)cc1)C(=O)O` (configuration not stated) yielded an EC50 in series [1] of 1700 nM.

A word on the Vd: it is the apparent volume that relates the amount in the body to the concentration in plasma or blood. Higher therefore signals extensive tissue distribution. Broadly, the half-life is how long it takes for the measured level to halve. The low end stands for rapid decline, the high end for slow decline. A word on the CL/F: it is clearance divided by bioavailability, as obtained after extravascular dosing. The AUC is the area under the concentration-time curve, a measure of exposure. In general, bioavailability refers to dose-corrected exposure relative to a reference, in per cent. Higher therefore signals good availability. What is called Cmax is the maximum level reached in the sampled fluid or tissue. Consider `CCO[C@@H](Cc1ccc(OCCn2c3ccccc3c3ccccc32)cc1)C(=O)O`, for which the Vd in the series “in vivo” was 0.73 L/kg. The Reduction in the series filed under Rattus norvegicus [3] was determined as 50%; in the series listed under Rattus norvegicus [5], 56%. Further, the ED50 in the series filed under Mus musculus [7] was 0.52 mg/kg; in the series listed under Mus musculus [12], 0.34 mg/kg; in the series filed under Rattus norvegicus [4], 0.06 mg/kg; in the series filed under Mus musculus [15], 0.27 mg/kg; in the series filed under Rattus norvegicus [6], 0.34 mg/kg. This compound registered a half-life in series [8] of 1330 min. Moreover, the Max reduction is 58% and 55% in the series listed under Mus musculus [9]; 52% in the series listed under Mus musculus [13]; 85% in the series filed under Mus musculus [16]. For the same compound, in series [10], the CL/F was 0.75 mL/min/kg. Besides, the AUC in series [11] was 144 µg·h/mL. The “AUC ED50” value in series [14] was 0.4 mg/kg. Further, the EC50 in series [1] came to 170 nM; in series [2], 0.36 µM. The bioavailability in [17] was > 100%. In series [18], the Cmax was found to be 4430 ng/mL.

Turning to `CCOC(Cc1ccc(OCCCN2c3ccccc3CCc3ccccc32)cc1)C(=O)O` (configuration not stated), the EC50 in series [1] is 760 nM.

`CCOC(Cc1ccc(OCC/C=C2/c3ccccc3COc3ccccc32)cc1)C(=O)O` (configuration not stated): the EC50 in series [1] came to 12400 nM; in [2], 12.4 µM.

In the case of `CCO[C@@H](Cc1ccc(OCCn2c3ccccc3c3cc(Br)ccc32)cc1)C(=O)O`, the concentration giving a half-maximal response (EC50) in series [1] is 330 nM; in [2] it was 2.4 µM.

For `CCOC(Cc1ccc(OCCN2c3ccccc3C=Cc3ccccc32)cc1)C(=O)O` (configuration not stated), the EC50 in series [1] was determined as 760 nM; in series [2], 9.5 µM.

`CCOC(Cc1ccc(OCCC2c3ccccc3-c3ccccc32)cc1)C(=O)O` (configuration not stated): the EC50 is 490 nM in series [1] and 11.7 µM in series [2].
